Legend:
[1] = tested on: Salmonella typhimurium TA100; assay: AMES test, mutagenic evaluation in Salmonella typhimurium TA100 strain with/without metabolic activation (S9); format: cell-based
Protocol: (§1) The procedure was firstly developed by (MARON, D. M. and AMES, B. N. Mut. Res. v. 113, pp. 173-215, 1983)
(§2) For this assay, Salmonella typhimurium TA100 and TA102 strains from the mutagenicity laboratory of the “Faculdade de Ciências Farmacêuticas—UNESP Araraquara” were used. Such strains have the following characteristics: (AMES, 1983)
(§3) The positive controls are mutagenic compounds specific for each strain and test condition, with 25 μL/plate of sodium azide (1.25 μg/plate) and 100 μL of mitomycin (0.5 μg/plate) being the controls for TA100 and TA102, respectively, in the absence of metabolic activation. For assays with metabolic activation, the positive control for TA100 is 50 μL 2-antramine (1.25 μg/plate) and for TA102 it is 50 μL 2-aminofluorene (1.25 μg/plate).
(§4) The preincubation method was used.
(§5) In laminar flow, Salmonella typhimurium (TA100 and TA 102) strains were inoculated individually with a platinum loop, in the respective nutrient broths and maintained at 37° C., under constant stirring (160 rpm) during 14 hours, in order to achieve a density of 1 to 2×10^9 bacteria/mL.
(§6) Different concentrations of the compounds were added into 100 μL of 0.2M phosphate buffer pH 7.4 (or 500 μL of the mixture S9 in metabolic activation assays) and incubated for 20-30 minutes at 37° C. Solutions containing the compounds had DMSO as the solvent. Thereafter, 2 mL of top agar supplemented with traces of histidine and biotin was added, homogenized and plated in glycosylated minimum medium. After solidification of the top agar, the plates were incubated for 48 hours at a 37° C. Then, the counting of the number of revertant colonies per plate was performed. All tested concentrations, positive and negative controls were run in triplicate.
(§7) After 48 hours, the revertant colonies were counted manually, and the protoCOL Colony Counter Version 3.15.630 (1998-2001) SYNBIOSIS LTD system was used for the positive control.
(§8) The final data obtained from the assay was analyzed using the statistical software Salanal (Salmonella Assay Analysis) version 1.0 from the Research Triangle Institute, RTP, North Carolina, USA. Such software allows the dose-response effect to be evaluated by means of analysis of variance (ANOVA-test F) computations between the measurement of the number of revertants at the different tested concentrations (doses) and the negative control, followed by a linear regression. The software model chosen for analyzing the data was Bernstein's (BERNSTEIN, L. et al. Mutat. Res. v. 97, p. 267-281, 1982). The slope of the straight line from the linear portion of the dose-response curve is also provided by this software and corresponds to the number of revertants induced per measurement unit of the analyzed sample.
(§9) From the results, the mutagenicity ratio (MR) was computed for each analyzed dose from each compound. MR is given by the following equation:
(§10) MR=average number of revertants per test plate (spontaneous+induced revertants) […] average number of revertants per plate of the negative control (spontaneous revertants)
(§11) The spontaneous growing means that the number of revertants which developed on the plate, regardless of being induced or not, wherein values higher or equal to 2 are considered as a positive response (VALENT, G. V. et al. Env. Toxicol. Water Quality. v. 8, p. 371-381, 1993).
(§12) The mutagenicity test with metabolic activation system was performed with a microsomal fraction S9 (S9 mix) prepared from a liver homogenizate from Sprague Dawley rats, previously treated with Aroclor 1254, acquired in the freeze-dried form.
(§13) The procedure for this assay is the same, however, instead of the buffer, 500 μL of the S9 mixture should be added.
(§14) The S9 mixture has a viability of 4 hours from preparation when put on ice. The plates are then incubated for 48 hours at 37° C. After the required time has elapsed, the counting of the revertant colonies was carried out. All tested concentrations, positive and negative controls were run in triplicate.

[2] = tested on: Salmonella typhimurium TA102; assay: AMES test, mutagenic evaluation in Salmonella typhimurium TA102 strain with/without metabolic activation (S9); format: cell-based
Protocol: as §1, §2, §3, §4, §5, §6, §7, §8, §9, §10, §11, §12, §13, §14

[3] = tested on: mouse ear edema induced by capsaicin; assay: Mouse ear edema assay induced by capsaicin; format: in vivo; details: 300 μmol/Kg i.p., capsaicin 250 μg/ear 1 hour after administration
Protocol: This assay is characterized by an acute inflammatory response of the ear, with development of edema, and it was performed in order to evaluate the anti-inflammatory activity of the synthesized compounds.
In this assay, indomethacin was used as a control at 100 μmol/Kg, and the phthalimide derivatives were firstly evaluated at 300 μmol/Kg via i.p. From table 4, it can be observed that compounds IC and IE show an ear edema inhibition percentage higher than 64%. […] The other compounds, however, show a similar activity when compared to indomethacin (FIG. 01), taking into consideration the standard error.
This assay was performed using Swiss mice from both genders weighing from 18 to 30 grams. The animals were fasted for 8 hours with free access to water. This assay consists in locally administering (right ear) 20 μl of a capsaicin solution (250 μg/ear) diluted in acetone, 1 hour after the i.p. administration (diluted in 0.5% gum arabic). The left ear (control) received the carrier in which capsaicin was diluted (acetone) and the right ear received capsaicin. This assay is characterized by an acute inflammatory response of the ear, with development of edema. The animals were sacrificed and their ears were weighted to obtain the inflammation index. A biopsy (8 mm in diameter) of the ear was carried out. Next, the weights of the inflamed ears were compared against the weights of the contralateral ear (control ear) which were not treated with the phlogistic agent. The edema inhibition percentage was calculated by subtracting the ear treated with the carrier by that treated with capsaicin from each group of animals treated with the test substances, and then it was divided by the difference between the groups of the irritating agents and the control groups.

Compound: O=C1c2ccccc2C(=O)N1CO[N+](=O)[O-] [Compound IA, (1,3-dioxo-1,3-dihydro-2H-isoindol-2-yl)methyl nitrate]
- mutagenicity ratio (MR) ([1]; TA 100, +S9, 7.25 nmol/plate): 1.19
- number of revertants per plate ([1]; TA 100, +S9, 7.25 nmol/plate): 154 ± 14.2 revertants/plate
- mutagenicity ratio (MR) ([1]; TA 100, +S9, 14.5 nmol/plate): 1.19
- number of revertants per plate ([1]; TA 100, +S9, 14.5 nmol/plate): 155 ± 5.9 revertants/plate
- mutagenicity ratio (MR) ([1]; TA 100, +S9, 29 nmol/plate): 1.08
- number of revertants per plate ([1]; TA 100, +S9, 29 nmol/plate): 140.3 ± 2 revertants/plate
- mutagenicity ratio (MR) ([1]; TA 100, +S9, 56 nmol/plate): 0.97
- number of revertants per plate ([1]; TA 100, +S9, 56 nmol/plate): 126.3 ± 8.1 revertants/plate
- mutagenicity ratio (MR) ([1]; TA 100, +S9, 112 nmol/plate): 1.03
- number of revertants per plate ([1]; TA 100, +S9, 112 nmol/plate): 133.3 ± 11 revertants/plate
- mutagenicity ratio (MR) ([1]; TA 100, −S9, 7.25 nmol/plate): 1.03
- number of revertants per plate ([1]; TA 100, −S9, 7.25 nmol/plate): 140.5 ± 17 revertants/plate
- mutagenicity ratio (MR) ([1]; TA 100, −S9, 14.5 nmol/plate): 1.18
- number of revertants per plate ([1]; TA 100, −S9, 14.5 nmol/plate): 161.7 ± 11 revertants/plate
- mutagenicity ratio (MR) ([1]; TA 100, −S9, 29 nmol/plate): 0.9
- number of revertants per plate ([1]; TA 100, −S9, 29 nmol/plate): 122.7 ± 3.06 revertants/plate
- mutagenicity ratio (MR) ([1]; TA 100, −S9, 56 nmol/plate): 1.71
- number of revertants per plate ([1]; TA 100, −S9, 56 nmol/plate): 234 ± 39.5 revertants/plate
- mutagenicity ratio (MR) ([1]; TA 100, −S9, 112 nmol/plate): 2.45
- number of revertants per plate ([1]; TA 100, −S9, 112 nmol/plate): 335 ± 15.7 revertants/plate
- concentration above which toxicity is observed (reduction on the number of revertants per plate) ([2]; TA102 (+S9)): higher than 56 nmol
- mutagenicity ratio (MR) ([2]; TA 102, +S9, 7.25 nmol/plate): 1.4
- number of revertants per plate ([2]; TA 102, +S9, 7.25 nmol/plate): 298 ± 11.3 revertants/plate
- mutagenicity ratio (MR) ([2]; TA 102, +S9, 14.5 nmol/plate): 1.5
- number of revertants per plate ([2]; TA 102, +S9, 14.5 nmol/plate): 320.8 ± 17 revertants/plate
- mutagenicity ratio (MR) ([2]; TA 102, +S9, 29 nmol/plate): 1.8
- number of revertants per plate ([2]; TA 102, +S9, 29 nmol/plate): 385 ± 21.8 revertants/plate
- mutagenicity ratio (MR) ([2]; TA 102, +S9, 56 nmol/plate): 2.34
- number of revertants per plate ([2]; TA 102, +S9, 56 nmol/plate): 499 ± 8.9 revertants/plate
- mutagenicity ratio (MR) ([2]; TA 102, +S9, 112 nmol/plate): 1.64
- number of revertants per plate ([2]; TA 102, +S9, 112 nmol/plate): 351.2 ± 12 revertants/plate
- mutagenicity ratio (MR) ([2]; TA 102, −S9, 7.25 nmol/plate): 1.33
- number of revertants per plate ([2]; TA 102, −S9, 7.25 nmol/plate): 263.7 ± 15 revertants/plate
- mutagenicity ratio (MR) ([2]; TA 102, −S9, 14.5 nmol/plate): 1.26
- number of revertants per plate ([2]; TA 102, −S9, 14.5 nmol/plate): 249.7 ± 12 revertants/plate
- mutagenicity ratio (MR) ([2]; TA 102, −S9, 29 nmol/plate): 1.32
- number of revertants per plate ([2]; TA 102, −S9, 29 nmol/plate): 261.3 ± 20 revertants/plate
- mutagenicity ratio (MR) ([2]; TA 102, −S9, 56 nmol/plate): 0.77
- number of revertants per plate ([2]; TA 102, −S9, 56 nmol/plate): 153 ± 21 revertants/plate
- mutagenicity ratio (MR) ([2]; TA 102, −S9, 112 nmol/plate): 0.71
- number of revertants per plate ([2]; TA 102, −S9, 112 nmol/plate): 141 ± 18 revertants/plate
- Average inhibition % (ear edema) [3]: 53.75%

Compound: O=C1c2ccccc2C(=O)N1c1ccc(CCO[N+](=O)[O-])cc1 [Compound IE, 2-[4-(1,3-dioxo-1,3-dihydro-2H-isoindol-2-yl)phenyl]ethyl nitrate]
- mutagenicity ratio (MR) ([1]; TA 100, +S9, 0.12 μmol/plate): 2.8
- number of revertants per plate ([1]; TA 100, +S9, 0.12 μmol/plate): 363 ± 25.2 revertants/plate
- mutagenicity ratio (MR) ([1]; TA 100, +S9, 0.25 μmol/plate): 3.7
- number of revertants per plate ([1]; TA 100, +S9, 0.25 μmol/plate): 478.7 ± 4.22 revertants/plate
- mutagenicity ratio (MR) ([1]; TA 100, +S9, 0.5 μmol/plate): 4.86
- number of revertants per plate ([1]; TA 100, +S9, 0.5 μmol/plate): 628 ± 40.8 revertants/plate
- mutagenicity ratio (MR) ([1]; TA 100, +S9, 1 μmol/plate): 5.72
- number of revertants per plate ([1]; TA 100, +S9, 1 μmol/plate): 739 ± 25.4 revertants/plate
- mutagenicity ratio (MR) ([1]; TA 100, +S9, 2 μmol/plate): 5.79
- number of revertants per plate ([1]; TA 100, +S9, 2 μmol/plate): 750 ± 13.6 revertants/plate
- mutagenicity ratio (MR) ([1]; TA 100, −S9, 0.12 μmol/plate): 1.04
- number of revertants per plate ([1]; TA 100, −S9, 0.12 μmol/plate): 143.3 ± 5 revertants/plate
- mutagenicity ratio (MR) ([1]; TA 100, −S9, 0.25 μmol/plate): 0.99
- number of revertants per plate ([1]; TA 100, −S9, 0.25 μmol/plate): 135.3 ± 12 revertants/plate
- mutagenicity ratio (MR) ([1]; TA 100, −S9, 0.5 μmol/plate): 0.99
- number of revertants per plate ([1]; TA 100, −S9, 0.5 μmol/plate): 136.3 ± 13 revertants/plate
- mutagenicity ratio (MR) ([1]; TA 100, −S9, 1 μmol/plate): 0.89
- number of revertants per plate ([1]; TA 100, −S9, 1 μmol/plate): 121.5 ± 14 revertants/plate
- mutagenicity ratio (MR) ([1]; TA 100, −S9, 2 μmol/plate): 1.30
- number of revertants per plate ([1]; TA 100, −S9, 2 μmol/plate): 177 ± 23.6 revertants/plate
- mutagenicity ratio (MR) ([2]; TA 102, +S9, 0.12 μmol/plate): 0.9
- number of revertants per plate ([2]; TA 102, +S9, 0.12 μmol/plate): 335.3 ± 11 revertants/plate
- mutagenicity ratio (MR) ([2]; TA 102, +S9, 0.25 μmol/plate): 0.8
- number of revertants per plate ([2]; TA 102, +S9, 0.25 μmol/plate): 295.3 ± 28 revertants/plate
- mutagenicity ratio (MR) ([2]; TA 102, +S9, 0.5 μmol/plate): 1.09
- number of revertants per plate ([2]; TA 102, +S9, 0.5 μmol/plate): 406 ± 14.1 revertants/plate
- mutagenicity ratio (MR) ([2]; TA 102, +S9, 1 μmol/plate): 1.25
- number of revertants per plate ([2]; TA 102, +S9, 1 μmol/plate): 465 ± 10.6 revertants/plate
- mutagenicity ratio (MR) ([2]; TA 102, +S9, 2 μmol/plate): 1.2
- number of revertants per plate ([2]; TA 102, +S9, 2 μmol/plate): 447 ± 19.8 revertants/plate
- mutagenicity ratio (MR) ([2]; TA 102, −S9, 0.12 μmol/plate): 1.29
- number of revertants per plate ([2]; TA 102, −S9, 0.12 μmol/plate): 256 ± 6.9 revertants/plate
- mutagenicity ratio (MR) ([2]; TA 102, −S9, 0.25 μmol/plate): 1.32
- number of revertants per plate ([2]; TA 102, −S9, 0.25 μmol/plate): 262 ± 19.1 revertants/plate
- mutagenicity ratio (MR) ([2]; TA 102, −S9, 0.5 μmol/plate): 1.35
- number of revertants per plate ([2]; TA 102, −S9, 0.5 μmol/plate): 266.7 ± 18 revertants/plate
- mutagenicity ratio (MR) ([2]; TA 102, −S9, 1 μmol/plate): 1.34
- number of revertants per plate ([2]; TA 102, −S9, 1 μmol/plate): 265.7 ± 10 revertants/plate
- mutagenicity ratio (MR) ([2]; TA 102, −S9, 2 μmol/plate): 1.02
- number of revertants per plate ([2]; TA 102, −S9, 2 μmol/plate): 201 ± 4.7 revertants/plate

— patent US8314255B2, “Use of phthalimide and/or sulphonamide derivatives in the treatment of diseases which require reducing the TNF- α levels and an exogenous source of nitric oxide, phthalimide derivatives, sulphonamide derivatives, and a method for obtaining a sulphonamide derivative” (priority 2007, dated 2012)
